Patent US20160168540A1, “COMPOSITION FOR MAINTAINING PLATELET FUNCTION” (KYOTO UNIVERSITY, priority 2013, published 2016)

What follows are molecules tested against T1, TACE (ADAM17) (Homo sapiens, UniProt P78536) (assay: TACE (ADAM17) inhibition test). Settings: fluorescent synthetic substrate, 37° C. for 1.5 hours; read-out: TACE IC50.
T1 construct: made in house; host or cells: mammalian cells or insect cells
Assay type: biochemical
Description: The nucleotide sequence of TACE has been reported by Moss et al. (Moss, M. L. et al., Nature 1997, vol. 385, pp. 733-736). Based on this information, the cDNA of TACE was obtained according to the prescribed method from THP-1 cells or the like, and then incorporated the cDNA into an expression vector. Next, this vector was transformed into mammalian cells or insect cells, and TACE protein was expressed. The TACE protein was isolated, and used as an enzyme. Further, a fluorescent synthetic substrate Nma(N-methylanthranilic acid)-Leu-Ala-Gln-Ala-Val-Arg-Ser-Ser-Lys(Dnp(dinitrophenyl))-D-Arg-NH2 including the TACE-cleaved sequence of a membrane-bound TNF was used as a substrate. The enzyme reaction was carried out by adding 1.8 μL of a solution of the test substance to 90 μL of a fluorescent synthetic substrate prepared with an assay buffer B (50 mM tris-hydrochloric acid buffer (pH 7.5) including 200 mM sodium chloride, 5 mM calcium chloride, 10 μM zinc sulfate, and 0.05% PLURONIC F-68), then mixing 90 μL of a TACE enzyme solution prepared with an assay buffer A (50 mM tris-hydrochloric acid buffer (pH 7.5) including 200 mM sodium chloride, 5 mM calcium chloride, 10 μM zinc sulfate, and 2 mg/mL bovine serum albumin) and reacting at 37° C. for 1.5 hours. Enzyme activity was then determined by measuring with a fluorescence intensity meter (Labsystems, Fluoroskan Ascent) at an excitation wavelength of 355 nm and a measurement wavelength of 460 nm. The 50% inhibitory concentration (IC50) of the test substances was calculated by comparing enzyme activity in the presence and the absence of the test substance to determine the inhibition rate. Further, test substances having an IC50 strength of less than 100 nM were evaluated as “A”, and test substances having an IC50 strength of 100 nM or more were evaluated as “B”.

T1 sequence (P78536 215-824): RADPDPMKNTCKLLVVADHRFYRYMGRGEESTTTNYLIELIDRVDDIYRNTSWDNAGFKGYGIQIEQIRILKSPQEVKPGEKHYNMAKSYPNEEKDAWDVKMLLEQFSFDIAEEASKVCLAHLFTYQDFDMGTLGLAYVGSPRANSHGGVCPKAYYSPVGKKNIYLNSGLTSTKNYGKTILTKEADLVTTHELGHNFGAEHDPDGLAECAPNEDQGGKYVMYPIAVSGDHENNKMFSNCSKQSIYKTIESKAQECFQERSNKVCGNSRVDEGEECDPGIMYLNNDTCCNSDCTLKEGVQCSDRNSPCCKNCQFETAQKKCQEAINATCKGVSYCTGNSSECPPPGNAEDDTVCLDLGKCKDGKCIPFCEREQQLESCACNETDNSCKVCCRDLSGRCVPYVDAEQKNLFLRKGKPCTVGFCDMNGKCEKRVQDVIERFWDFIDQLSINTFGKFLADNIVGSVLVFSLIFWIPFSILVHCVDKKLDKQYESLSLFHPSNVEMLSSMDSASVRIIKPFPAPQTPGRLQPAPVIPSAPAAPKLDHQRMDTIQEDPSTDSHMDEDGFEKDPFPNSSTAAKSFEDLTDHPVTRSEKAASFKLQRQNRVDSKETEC

`Cc1ccccc1Oc1ccc(C2(Cn3cccc(C)c3=O)NC(=O)NC2=O)cc1` (racemic) [Compound I-35, 5-[(3-methyl-2-oxopyridin-1(2H)-yl)methyl]-5-[4-(o-tolyloxy)phenyl]imidazolidine-2,4-dione] and `Cc1cccn(CC2(c3ccc(OCc4ccccc4)cc3)NC(=O)NC2=O)c1=O` (racemic) [Compound I-64] cannot be ordered by IC50: < 0.1 µM for the first, < 0.1 µM for the second.

`Cc1cccn(CC2(c3ccc(OC4C=CCCC4)cc3)NC(=O)NC2=O)c1=O` (racemic) [Compound I-36, 5-[4-(cyclohex-2-en-1-yloxy)phenyl]-5-[(3-methyl-2-oxopyridin-1(2H)-yl)methyl]imidazolidine-2,4-dione] and `Cc1cccn(CC2(c3ccc(OC4CCCCC4)cc3)NC(=O)NC2=O)c1=O` (racemic) [Compound I-37, 5-[4-(cyclohexyloxy)phenyl]-5-[(3-methyl-2-oxopyridin-1(2H)-yl)methyl]imidazolidine-2,4-dione] cannot be ordered by IC50: < 0.1 µM for the first, < 0.1 µM for the second.

`Cc1cc(C2(Cn3cccc(C)c3=O)NC(=O)NC2=O)ccc1OC1CCCC1` (racemic) [Compound I-39, 5-[4-(cyclopentyloxy)-3-methylphenyl]-5-[(3-methyl-2-oxopyridin-1(2H)-yl)methyl]imidazolidine-2,4-dione] and `Cc1cccn(CC2(c3ccc(C4CCCCC4)cc3)NC(=O)NC2=O)c1=O` (racemic) [Compound I-66] cannot be ordered by IC50: < 0.1 µM for the first, < 0.1 µM for the second.

`Cc1cccn(CC2(c3ccc(Cc4ccccc4)cc3)NC(=O)NC2=O)c1=O` (racemic) [Compound I-40, 5-(4-benzylphenyl)-5-[(3-methyl-2-oxopyridin-1(2H)-yl)methyl]imidazolidine-2,4-dione] and `Cc1cccn(CC2(c3ccc(Cc4ccc(F)cc4)cc3)NC(=O)NC2=O)c1=O` (racemic) [Compound I-41, 5-[4-(4-fluorobenzyl)phenyl]-5-[(3-methyl-2-oxopyridin-1(2H)-yl)methyl]imidazolidine-2,4-dione] cannot be ordered by IC50: < 0.1 µM for the first, < 0.1 µM for the second.

`Cc1cccn(CC2(c3ccc(-c4nn[nH]n4)cc3)NC(=O)NC2=O)c1=O` (racemic) [Compound I-42, 5-[4-(2H-tetrazol-5-yl)phenyl]-5-[(3-methyl-2-oxopyridin-1(2H)-yl)methyl]imidazolidine-2,4-dione] and `C=Cc1ccc(C2(Cn3cccc(C)c3=O)NC(=O)NC2=O)cc1` (racemic) [Compound I-43, 5-[(3-methyl-2-oxopyridin-1(2H)-yl)methyl]-5-(4-vinylphenyl)imidazolidine-2,4-dione] cannot be ordered by IC50: < 0.1 µM for the first, < 0.1 µM for the second.

`Cc1cccn(CC2(c3cc(F)c(F)c(F)c3)NC(=O)NC2=O)c1=O` (racemic) [Compound I-44, 5-[(3-methyl-2-oxopyridin-1(2H)-yl)methyl]-5-(3,4,5-trifluorophenyl)imidazolidine-2,4-dione] and `Cc1cccn(CC2(c3ccc(F)cc3F)NC(=O)NC2=O)c1=O` (racemic) [Compound I-61] cannot be ordered by IC50: < 0.1 µM for the first, ≥ 0.1 µM for the second.

`CCCc1ccc(C2(Cn3cccc(C)c3=O)NC(=O)NC2=O)cc1` (racemic) [Compound I-45, 5-[(3-methyl-2-oxopyridin-1(2H)-yl)methyl]-5-(4-propylphenyl)imidazolidine-2,4-dione] and `CCc1cccn(CC2(c3ccc(OC)cc3)NC(=O)NC2=O)c1=O` (racemic) [Compound I-53, 5-[(3-ethyl-2-oxopyridin-1(2H)-yl)methyl]-5-(4-methoxyphenyl)imidazolidine-2,4-dione] cannot be ordered by IC50: < 0.1 µM for the first, ≥ 0.1 µM for the second.

`O=C1NC(=O)C(Cn2ccccc2=O)(c2ccccc2)N1` (racemic) [Compound I-46, 5-[(2-oxopyridin-1(2H)-yl)methyl]-5-phenylimidazolidine-2,4-dione] and `O=C1NC(=O)C(Cn2cccc(Cl)c2=O)(c2ccccc2)N1` (racemic) [Compound I-50, 5-[(3-chloro-2-oxopyridin-1(2H)-yl)methyl]-5-phenylimidazolidine-2,4-dione] cannot be ordered by IC50: < 0.1 µM for the first, < 0.1 µM for the second.

`COc1ccc(C2(Cn3ccccc3=O)NC(=O)NC2=O)cc1` (racemic) [Compound I-47, 5-(4-methoxyphenyl)-5-[(2-oxopyridin-1(2H)-yl)methyl]imidazolidine-2,4-dione] and `COc1ccc(C2(Cn3cccc(Br)c3=O)NC(=O)NC2=O)cc1` (racemic) [Compound I-52, 5-[(3-bromo-2-oxopyridin-1(2H)-yl)methyl]-5-(4-methoxyphenyl)imidazolidine-2,4-dione] cannot be ordered by IC50: < 0.1 µM for the first, < 0.1 µM for the second.

`O=C1NC(=O)C(Cn2cccc(F)c2=O)(c2ccc(F)cc2)N1` (racemic) [Compound I-48, 5-[(3-fluoro-2-oxopyridin-1(2H)-yl)methyl]-5-(4-fluorophenyl)-imidazolidine-2,4-dione] and `O=C1NC(=O)C(Cn2cccc(F)c2=O)(c2ccc(-c3ccccc3)cc2)N1` (racemic) [Compound I-49, 5-([1,1′-biphenyl]-4-yl)-5-[(3-fluoro-2-oxopyridin-1(2H)-yl)methyl]imidazolidine-2,4-dione] cannot be ordered by IC50: < 0.1 µM for the first, < 0.1 µM for the second.

`O=C1NC(=O)C(Cn2cccc(Cl)c2=O)(c2cc3ccccc3o2)N1` (racemic) [Compound I-51, 5-(benzofuran-2-yl)-5-[(3-chloro-2-oxopyridin-1(2H)-yl)methyl]imidazolidine-2,4-dione] and `Cc1cccn(CC2(c3ccc4ccccc4c3)NC(=O)NC2=O)c1=O` (racemic) [Compound I-56] cannot be ordered by IC50: < 0.1 µM for the first, < 0.1 µM for the second.

`Cc1cccn(CC2(c3cccc(O)c3)NC(=O)NC2=O)c1=O` (racemic) [Compound I-54, 5-(3-hydroxyphenyl)-5-[(3-methyl-2-oxopyridin-1(2H)-yl)methyl]imidazolidine-2,4-dione] and `Cc1cccn(CC2(c3cccc(Br)c3)NC(=O)NC2=O)c1=O` (racemic) [Compound I-57] cannot be ordered by IC50: ≥ 0.1 µM for the first, < 0.1 µM for the second.

`Cc1cccn(CC2(c3ccncc3)NC(=O)NC2=O)c1=O` (racemic) [Compound I-55] and `COc1ccccc1C1(Cn2cccc(C)c2=O)NC(=O)NC1=O` (racemic) [Compound I-60] cannot be ordered by IC50: < 0.1 µM for the first, ≥ 0.1 µM for the second.

`Cc1cccn(CC2(c3cccc(OCc4ccccc4)c3)NC(=O)NC2=O)c1=O` (racemic) [Compound I-58] and `Cc1cccn(CC2(c3ccccc3OCc3ccccc3)NC(=O)NC2=O)c1=O` (racemic) [Compound I-68] cannot be ordered by IC50: < 0.1 µM for the first, ≥ 0.1 µM for the second.

`Cc1cccn(CC2(c3ccc4c(c3)OCCO4)NC(=O)NC2=O)c1=O` (racemic) [Compound I-59] and `Cc1cccn(CC2(c3ccc4c(c3)OCO4)NC(=O)NC2=O)c1=O` (racemic) [Compound I-65] cannot be ordered by IC50: < 0.1 µM for the first, < 0.1 µM for the second.

`Cc1cccn(CC2(c3cccc(-c4cccnc4)c3)NC(=O)NC2=O)c1=O` (racemic) [Compound I-62] and `Cc1cccn(CC2(c3cccc(OC(F)(F)F)c3)NC(=O)NC2=O)c1=O` (racemic) [Compound I-67] cannot be ordered by IC50: < 0.1 µM for the first, < 0.1 µM for the second.

`Cc1cccn(CC2(c3cccc(C#CC(C)(C)C)c3)NC(=O)NC2=O)c1=O` (racemic) [Compound I-63] and `Cc1cccn(CC2(c3cccc(C#CCN(C)C)c3)NC(=O)NC2=O)c1=O` (racemic) [Compound I-71] cannot be ordered by IC50: ≥ 0.1 µM for the first, < 0.1 µM for the second.

`COc1ccc(F)cc1C1(Cn2cccc(C)c2=O)NC(=O)NC1=O` (racemic) [Compound I-69] and `COc1cc(C)c(Cl)cc1C1(Cn2cccc(C)c2=O)NC(=O)NC1=O` (racemic) [Compound I-70] cannot be ordered by IC50: < 0.1 µM for the first, ≥ 0.1 µM for the second.

`COc1ccc(-c2ccc(C3(Cn4cccc(C)c4=O)NC(=O)NC3=O)cc2)cc1` (racemic) [Compound I-72] was tested, and the IC50 was < 0.1 µM.
